Where two headings read alike, the source gives them in different places. A value given as a limit tells only on which side of the number the result lay.

The target in series [1] is T1, recombinant BoNTAe (BoNTA endopeptidase) (Clostridium botulinum, UniProt P0DPI0). To be noted: cited from earlier work.
Series [2] addresses T1, recombinant BoNTAe (BoNTA endopeptidase). The series can be described thus: biochemical. As to conditions: read-out: % BoNTAe inhibition.
The conditions of series [3]: mouse, in vivo.
Series [4] in a line: in vivo. To be noted: Balb/c, mouse, ip, 2 mg/kg.
A short description of series [5]: physchem. To be noted: water.
For series [6], the target named is BoNTA (Clostridium botulinum, UniProt P0DPI0). Details: species or system Balb/c mice. As to conditions: mouse, in vivo.
The conditions of series [7]: Balb/c, mouse, in vivo, ip, 2 mg/kg.

As to `NCCCCn1c(-c2ccccc2)cc2ccc(C(=O)c3cc(CC(=O)NO)c(-c4ccccc4)s3)cc21` [APH, reference compound], in series [1] (read-out: Ki^app), the Ki is 7 µM.

What is called inhibition is the drop in the measured response relative to a control, in per cent. As a reminder, the AUC(0-t) is the area under the concentration-time curve up to a stated or last time point. High values mean more exposure, low ones less exposure. Broadly, the Cmax is the highest concentration seen after dosing. In general, half-life refers to the time needed for the level to fall by half in the phase considered. Low readings indicate rapid decline, high ones slow decline. Broadly, the solubility is the concentration that dissolves in the medium under given conditions. On to `NCCCCn1c(-c2ccccc2)c(F)c2ccc(C(=O)c3cc(CC(=O)NO)c(-c4cccc(N)c4)s3)cc21` [Inhibitor F3A, 2-(5-(1-(4-Aminobutyl)-3-fluoro-2-phenyl-1H-indole-6-carbonyl)-2-(3-aminophenyl)thiophen-3-yl)-N-hydroxyacetamide], for which the inhibition at 20 µM in series [2] is 47 ± 1%. Moreover, the “acute toxicity to mice, in words” value in series [3] is “no acute toxicity”. In series [4], this compound registered an AUC(0-t) of 1.39 µg·h/mL and a Cmax of 0.256 µg/mL. Moreover, in series [4] (T1/2), the half-life is 6.25 h. The half-life in series [4] (in vivo half-life (t1/2)) is roughly 6 h. Also, the solubility in series [5] was no less than 5 mM. Besides, in series [6], the “survival during the 12-hour period after the BoNTA challenge, in words” value (shortened to “survival during the 12-hour period”) is “all mice treated with any of the three inhibitors survived” and the “treated mice that died 48 hours after the toxin challenge” value (“treated mice that died 48 hours” below) turned out to be 90%. The “C24 (concentration 24 hours after one dose)” value in series [7] is recorded as 7.0 ng/mL.

Turning to `NCCCCn1c(-c2ccccc2)c(F)c2ccc(C(=O)c3cc(CC(=O)NO)c(-c4ccc(O)cc4)s3)cc21` [Inhibitor F4H, 2-(5-(1-(4-Aminobutyl)-3-fluoro-2-phenyl-1H-indole-6-carbonyl)-2-(4-hydroxyphenyl)thiophen-3-yl)-N-hydroxyacetamide], in series [2], the inhibition at 20 µM was 82 ± 6%. Besides, the “acute toxicity to mice, in words” value in series [3] was “no acute toxicity”. In series [4], this compound showed an exposure AUC(0-t) of 1.39 µg·h/mL and a peak concentration (Cmax) of 0.738 µg/mL. The half-life in series [4] (T1/2) was 6.5 h. For the same compound, the half-life in series [4] (in vivo half-life (t1/2)) was roughly 6 h. The solubility in series [5] is no less than 5 mM. In addition, in series [6], the “protection (survival) of mice 24 hours after the toxin challenge” value came out at 70%; the “protection (survival) of mice 48 hours after the toxin challenge” value is 60%; the “protection (survival) of mice during the 12-hour period after the toxin challenge” value is given as 100%; the “survival during the 12-hour period” value is given as “all mice treated with any of the three inhibitors survived”. Moreover, the “treated mice that died 48 hours” value in series [6] worked out at 40%. Besides, the “C24 (concentration 24 hours after one dose)” value in series [7] is recorded as less than 0.5 ng/mL.

Turning to `NCCCCn1c(-c2ccccc2)cc2ccc(C(=O)c3cc(CC(=O)NO)c(-c4cccc(O)c4)s3)cc21` [Inhibitor H3H], the inhibition at 20 µM in series [2] came to 78 ± 4%. For the same compound, in series [3], the “acute toxicity to mice, in words” value is “no acute toxicity”. In series [4], this compound yielded an AUC(0-t) of 1.55 µg·h/mL and a Cmax of 0.497 µg/mL. The compound further had a half-life in series [4] (T1/2) of 4.35 h. Besides, the half-life in series [4] (in vivo half-life (t1/2)) is roughly 4 h. In series [6], the “survival during the 12-hour period” value is given as “all mice treated with any of the three inhibitors survived” and the “treated mice that died 48 hours” value stood at 40%. In addition, the “serotype specificity of BoNTAe inhibition, in words” value in series [1] was “serotype-specific”. In series [1] (read-out: Ki app), the Ki was 3.8 ± 0.77 µM. In addition, in series [1] (read-out: Ki^app), the Ki was 4 µM. The “C24 (concentration 24 hours after one dose)” value in series [7] turned out to be 3.0 ng/mL.

The values above are taken from paper PMC2854131 (PLoS ONE, 2010).
